Key:
[1] = target: T1, DmAgo2ΔQ (Drosophila melanogaster, UniProt Q9VUQ5); assay: filter binding, competition with […]-bantam miRNA; settings: PBS, 5 mM MgCl2, room temperature; 5'-end miRNA site; high concentrations
T1 sequence (Q9VUQ5 400-1214 limits assumed): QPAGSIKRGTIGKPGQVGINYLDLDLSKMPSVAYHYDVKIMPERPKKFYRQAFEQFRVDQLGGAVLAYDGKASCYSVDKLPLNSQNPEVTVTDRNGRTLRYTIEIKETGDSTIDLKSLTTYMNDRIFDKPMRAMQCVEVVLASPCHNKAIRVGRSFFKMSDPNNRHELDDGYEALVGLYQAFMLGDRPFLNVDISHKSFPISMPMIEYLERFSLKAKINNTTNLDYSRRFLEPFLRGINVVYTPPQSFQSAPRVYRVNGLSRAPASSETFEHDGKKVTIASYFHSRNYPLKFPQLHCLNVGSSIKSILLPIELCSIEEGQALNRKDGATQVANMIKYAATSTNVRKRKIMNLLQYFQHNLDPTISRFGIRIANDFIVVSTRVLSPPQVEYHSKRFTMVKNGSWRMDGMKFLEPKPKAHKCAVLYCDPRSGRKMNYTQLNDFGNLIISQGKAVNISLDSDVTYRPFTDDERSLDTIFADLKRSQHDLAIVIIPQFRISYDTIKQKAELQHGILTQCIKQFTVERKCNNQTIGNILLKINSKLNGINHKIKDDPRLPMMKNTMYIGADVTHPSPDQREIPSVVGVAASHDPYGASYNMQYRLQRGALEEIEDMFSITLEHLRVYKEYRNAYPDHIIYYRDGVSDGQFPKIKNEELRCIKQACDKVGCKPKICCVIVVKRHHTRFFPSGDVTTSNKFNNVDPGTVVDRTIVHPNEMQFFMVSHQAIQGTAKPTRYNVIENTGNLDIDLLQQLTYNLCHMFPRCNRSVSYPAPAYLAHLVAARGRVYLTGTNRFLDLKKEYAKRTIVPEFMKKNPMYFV

[2] = target: T1, DmAgo2ΔQ; assay: resin pull-down, GTP-Sepharose; format: binding; settings: ligand immobilised on Sepharose; competed by miRNA; PBS, MgCl2, 4 C
[3] = target: T2, PurR-C (Escherichia coli, UniProt P0ACP7); assay: Sepharose resin pull-down, competition with free nucleotide; format: binding; settings: 500 uM nucleotide, PBS, 5 mM MgCl2, 4 C; data not shown
T2 sequence (P0ACP7 60-341 limits assumed): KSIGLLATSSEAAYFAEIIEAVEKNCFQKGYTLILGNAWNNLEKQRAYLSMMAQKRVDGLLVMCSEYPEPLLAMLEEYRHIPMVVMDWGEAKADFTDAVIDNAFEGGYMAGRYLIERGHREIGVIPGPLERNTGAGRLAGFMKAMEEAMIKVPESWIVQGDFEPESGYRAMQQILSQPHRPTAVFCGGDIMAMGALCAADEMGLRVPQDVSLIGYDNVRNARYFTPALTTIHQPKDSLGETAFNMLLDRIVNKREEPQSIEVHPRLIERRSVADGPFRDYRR

[4] = target: T3, DmAgo2-MID (Drosophila melanogaster, UniProt Q9VUQ5); assay: m7GTP-Sepharose pull-down, competition with free nucleotide; format: binding; settings: 500 uM GTP, PBS, 5 mM MgCl2, 4 C; competitive
T3 sequence (Q9VUQ5 740-884 limits assumed): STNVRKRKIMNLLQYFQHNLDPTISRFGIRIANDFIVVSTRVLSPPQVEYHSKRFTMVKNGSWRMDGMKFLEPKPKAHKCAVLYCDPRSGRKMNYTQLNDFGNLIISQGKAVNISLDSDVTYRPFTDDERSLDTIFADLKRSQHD

[5] = target: T4, CeRde1 MID domain (Caenorhabditis elegans, UniProt G5EEH0); assay: resin pull-down, m7GTP-Sepharose; format: binding; settings: ligand immobilised on Sepharose; PBS, 5 mM MgCl2, 4 C
T4 sequence (G5EEH0 470-618 limits assumed): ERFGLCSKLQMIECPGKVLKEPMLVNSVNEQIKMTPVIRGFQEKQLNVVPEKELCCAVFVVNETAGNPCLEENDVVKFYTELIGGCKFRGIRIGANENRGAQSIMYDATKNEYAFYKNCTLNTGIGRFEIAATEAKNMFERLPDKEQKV

[6] = target: T2, PurR-C; assay: resin pull-down, m7GTP-Sepharose; format: binding; settings: ligand immobilised on Sepharose; PBS, 5 mM MgCl2, 4 C
[7] = target: DmAgo1-MID (Drosophila melanogaster, UniProt A1Z9J5); assay: resin pull-down, m7GTP-Sepharose; format: binding; settings: ligand immobilised on Sepharose; PBS, 5 mM MgCl2, 4 C
[8] = target: T5, DmeIF4E (Drosophila melanogaster, UniProt P48598); assay: resin pull-down, m7GTP-Sepharose; format: binding; settings: ligand immobilised on Sepharose; PBS, 5 mM MgCl2, 4 C
T5 sequence (P48598 1-259): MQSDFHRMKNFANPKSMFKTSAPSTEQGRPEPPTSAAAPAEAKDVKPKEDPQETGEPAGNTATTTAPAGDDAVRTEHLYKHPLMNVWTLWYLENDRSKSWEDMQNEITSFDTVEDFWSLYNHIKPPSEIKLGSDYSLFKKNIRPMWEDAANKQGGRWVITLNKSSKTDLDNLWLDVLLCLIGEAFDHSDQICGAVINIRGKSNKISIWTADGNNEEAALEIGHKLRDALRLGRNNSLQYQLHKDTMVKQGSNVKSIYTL

[9] = target: CeAlg1-MID (Caenorhabditis elegans, UniProt G5EGR6); assay: resin pull-down, m7GTP-Sepharose; format: binding; settings: ligand immobilised on Sepharose; PBS, 5 mM MgCl2, 4 C
[10] = target: T3, DmAgo2-MID; assay: resin pull-down, m7GTP-Sepharose; format: binding; settings: ligand immobilised on Sepharose; PBS, 5 mM MgCl2, 4 C

CeAlg1-MID, sequence (G5EGR6 540-686 limits assumed): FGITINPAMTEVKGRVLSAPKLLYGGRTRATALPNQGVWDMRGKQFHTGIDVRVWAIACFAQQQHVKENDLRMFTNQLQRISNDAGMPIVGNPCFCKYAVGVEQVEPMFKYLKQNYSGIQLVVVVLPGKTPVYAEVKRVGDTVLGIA
DmAgo1-MID, sequence (A1Z9J5 538-665): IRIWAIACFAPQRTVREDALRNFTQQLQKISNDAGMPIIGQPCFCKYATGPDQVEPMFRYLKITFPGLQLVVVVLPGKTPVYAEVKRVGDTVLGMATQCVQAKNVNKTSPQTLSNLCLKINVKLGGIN

SMILES: Nc1nc2c(ncn2[C@@H]2O[C@H](COP(=O)(O)O)[C@@H](O)[C@H]2O)c(=O)[nH]1 [GMP]
- filter binding, competition with 32P-bantam miRNA [1]: allosteric behavior was not observed for DmAgo2ΔQ, though GMP could compete at high concentrations

SMILES: Nc1nc2c(ncn2[C@@H]2O[C@H](COP(=O)(O)OP(=O)(O)OP(=O)(O)O)[C@@H](O)[C@H]2O)c(=O)[nH]1 [GTP]
- resin pull-down, GTP-Sepharose [2]: DmAgo2ΔQ binds poorly to m^7GTP, and better to GTP- and GMP-Sepharose
- Sepharose resin pull-down, competition with free nucleotide [3]: PurR binding to each resin was easily competed by both GTP and m^7GpppG
- m7GTP-Sepharose pull-down, competition with free nucleotide [4]: DmAgo2-MID binding was also readily competed by GTP

SMILES: C[n+]1cn([C@@H]2O[C@H](COP(=O)(O)OP(=O)(O)OP(=O)(O)O)[C@@H](O)[C@H]2O)c2nc(N)[nH]c(=O)c21 [m^7GTP]
- resin pull-down, m7GTP-Sepharose [5]: All of the MID domains [...] were able to bind to both resins
- resin pull-down, m7GTP-Sepharose [6]: as well as the ligand-binding domain of PurR, were able to bind to both resins
- resin pull-down, m7GTP-Sepharose [7]: miRNA-related Argonautes (DmAgo1, CeAlg1) consistently bound more effectively to m^7GTP-Sepharose
- resin pull-down, m7GTP-Sepharose [8]: the binding of DmeIF4E to m^7GTP-Sepharose was highly efficient
- resin pull-down, m7GTP-Sepharose [9]: miRNA-related Argonautes (DmAgo1, CeAlg1) consistently bound more effectively to m^7GTP-Sepharose
- resin pull-down, m7GTP-Sepharose [10]: All of the MID domains [...] were able to bind to both resins

SMILES: C[n+]1cn([C@@H]2O[C@H](COP(=O)(O)OP(=O)(O)OP(=O)(O)OC[C@H]3O[C@@H](n4cnc5c(=O)[nH]c(N)nc54)[C@H](O)[C@@H]3O)[C@@H](O)[C@H]2O)c2nc(N)[nH]c(=O)c21 [m^7GpppG]
- Sepharose resin pull-down, competition with free nucleotide [3]: PurR binding to each resin was easily competed by both GTP and m^7GpppG
